Measured values from ChEMBL document CHEMBL1201862, “PubChem BioAssay data set” (2004).
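Values below derive from 48-hour exposures of cells grown in 96-well plates, with endpoints linearly interpolated between the two concentrations bracketing the appropriate inhibition level. GI50 = concentration required for 50% inhibition of growth.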 The source made the active and inactive calls. No stated cut-off is given here; in the data, active = GI50 up to about 1.1 µM and inactive = higher.

Experiments:
Assay in all cases: inhibition of tumour cell growth, NCI panel, 48 h
RXF 631 = test system: RXF 631
DMS-114 = test system: DMS-114
LXFL 529 = test system: LXFL 529
DMS-273 = test system: DMS-273
SNB-78 = test system: SNB-78
HOP-18 = test system: HOP-18

Compound | GI50 (RXF 631) | GI50 (DMS-114) | GI50 (LXFL 529) | GI50 (DMS-273) | GI50 (SNB-78) | GI50 (HOP-18)
Cc1cc(=O)n(-c2c(C)cccc2Cl)c(/C=C(\O)c2ccncc2)n1 | > 100 µM (inactive) | > 100 µM (inactive) | > 100 µM (inactive) | > 100 µM (inactive) | > 100 µM (inactive) | > 100 µM (inactive)
CC(C)c1ccc(Cc2ccc(C(C)C)c(NC(=O)C(=O)Cc3cnc4ccccc4n3)c2C(C)C)c(C(C)C)c1NC(=O)C(=O)Cc1cnc2ccccc2n1 | > 100 µM (inactive) | > 100 µM (inactive) | > 100 µM (inactive) | – | > 100 µM (inactive) | –
CC1=C2C(=CC(C)(CO)C2O)C(=O)C(C)(O)C12CC2 (stereo not drawn) | 0.00274 µM (active) | 0.00205 µM (active) | 0.00393 µM (active) | 0.00162 µM (active) | 0.00144 µM (active) | 0.007 µM (active)
CC(=O)N1CC2Nc3ccccc3C2CC1CO (stereo not drawn) | > 100 µM (inactive) | > 100 µM (inactive) | > 100 µM (inactive) | > 100 µM (inactive) | > 100 µM (inactive) | –
Cc1c(C(=O)/C=C/c2ccc3c(c2)OCO3)[n+]([O-])c2ccccc2[n+]1[O-] | 53.6 µM (inactive) | 21.4 µM (inactive) | 22.2 µM (inactive) | 22.6 µM (inactive) | 36.2 µM (inactive) | 86.7 µM (inactive)
N#CC(C(=O)CCC(=O)Nc1cccc(C(F)(F)F)c1)c1ccc(Cl)cc1 (stereo not drawn) | > 100 µM (inactive) | – | > 100 µM (inactive) | > 100 µM (inactive) | > 100 µM (inactive) | > 100 µM (inactive)
CCOC(=O)[C@]12C3C=CC(C3)C1C(=O)C1OC12 (stereo partly drawn) | > 100 µM (inactive) | > 100 µM (inactive) | > 100 µM (inactive) | > 100 µM (inactive) | > 100 µM (inactive) | > 100 µM (inactive)
COc1cc([C@@H]2c3cc4c(cc3[C@@H](NCc3cccc(C#N)c3)C3COC(=O)[C@@H]32)OCO4)cc(OC)c1O (stereo partly drawn) | 1.29 µM (inactive) | 1.87 µM (inactive) | 5.9 µM (inactive) | 0.349 µM (active) | – | > 100 µM (inactive)
CC1(C)Cc2c(oc3ncnc(N)c23)CS1 | > 100 µM (inactive) | > 100 µM (inactive) | > 100 µM (inactive) | > 100 µM (inactive) | > 100 µM (inactive) | –
O=C1C(Cl)=C(Cl)C(=O)N1c1cccc(C(F)(F)F)c1 | > 100 µM (inactive) | > 100 µM (inactive) | > 100 µM (inactive) | > 100 µM (inactive) | > 100 µM (inactive) | > 100 µM (inactive)
CC1=C(NC(=O)C(=O)NNC(=O)c2ccncc2)C(=O)c2ccccc2C1=O | 40.4 µM (inactive) | 4.76 µM (inactive) | 14.6 µM (inactive) | 5.48 µM (inactive) | 14.5 µM (inactive) | 10.5 µM (inactive)
CC(C)N(C(=O)C12C3C4C1C1C2C3C41C(=O)N(C(C)C)C(C)C)C(C)C (stereo not drawn) | > 50 µM (inactive) | > 50 µM (inactive) | > 50 µM (inactive) | > 50 µM (inactive) | > 50 µM (inactive) | –
OCC(O)C(OC1OC(CO)C(O)C(O)C1O)c1nn(-c2ccc(Cl)cc2)c2nc3cc(Cl)ccc3nc12 (stereo not drawn) | > 100 µM (inactive) | > 100 µM (inactive) | > 100 µM (inactive) | – | > 100 µM (inactive) | –
O=C1C=C(c2ccccc2)NC1(c1ccccc1)c1cc(-c2ccccc2)[nH]c1-c1ccccc1 (stereo not drawn) | > 100 µM (inactive) | > 100 µM (inactive) | > 100 µM (inactive) | > 100 µM (inactive) | > 100 µM (inactive) | > 100 µM (inactive)
Cc1cccc(N(CC(=O)O)S(=O)(=O)c2ccccc2)c1 | > 100 µM (inactive) | – | > 100 µM (inactive) | > 100 µM (inactive) | – | > 100 µM (inactive)
CCOC(=O)C(=O)Nc1ccccc1C | > 100 µM (inactive) | > 100 µM (inactive) | > 100 µM (inactive) | – | > 100 µM (inactive) | –
